# From PubChem BioAssay AID2060499 (Molecular Pharmacology Branch, DTP, NCI, 2025)
# System: 777334-354-R2-J4-PDC tumor spheroids with HUVEC/MSC, viability
# Assay: Anticancer human tumor 777334-354-R2-J4-PDC patient-derived pancreatic adenocarcinoma cell line growth inhibition [GQUAD]
# Conditions: for IC50: curve of first compound; for viability, T/C: stronger effect = lower value
# Summary of the method: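 Viability of tumor cells grown as complex spheroids with endothelial and stromal cells, exposed to drug combinations. Top concentration at or near clinical Cmax (else 10 microM), diluted in half-log increments.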
# 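Further: spheroids exposed to compounds for 7 days before readout.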
smiles,measurement,setting,value
Cn1ncnc1[C@H]1c2n[nH]c(=O)c3cc(F)cc(c23)N[C@@H]1c1ccc(F)cc1 + CN(C)c1ccc(Nc2c3ccc(NC(=O)CCN4CCCC4)cc3nc3cc(NC(=O)CCN4CCCC4)ccc23)cc1,IC50,second compound 0.0316 µM,> 316 nM
same,IC50,second compound 0.1 µM,> 316 nM
same,IC50,second compound 0.316 µM,> 316 nM
same,IC50,second compound 1 µM,> 316 nM
same,IC50,second compound 3.16 µM,> 316 nM
same,IC50,second compound 10 µM,> 316 nM
same,"viability, T/C","second compound 0.0316 µM, first compound 0.000999 µM",108%
same,"viability, T/C","second compound 0.0316 µM, first compound 0.00316 µM",89.9%
same,"viability, T/C","second compound 0.0316 µM, first compound 0.00999 µM",87.1%
same,"viability, T/C","second compound 0.0316 µM, first compound 0.0316 µM",95.8%
same,"viability, T/C","second compound 0.0316 µM, first compound 0.0999 µM",92.2%
same,"viability, T/C","second compound 0.0316 µM, first compound 0.316 µM",79.7%
same,"viability, T/C","second compound 0.1 µM, first compound 0.000999 µM",98.7%
same,"viability, T/C","second compound 0.1 µM, first compound 0.00316 µM",85.4%
same,"viability, T/C","second compound 0.1 µM, first compound 0.00999 µM",99%
same,"viability, T/C","second compound 0.1 µM, first compound 0.0316 µM",88.6%
same,"viability, T/C","second compound 0.1 µM, first compound 0.0999 µM",79.6%
same,"viability, T/C","second compound 0.1 µM, first compound 0.316 µM",81.2%
same,"viability, T/C","second compound 0.316 µM, first compound 0.000999 µM",94%
same,"viability, T/C","second compound 0.316 µM, first compound 0.00316 µM",87.4%
same,"viability, T/C","second compound 0.316 µM, first compound 0.00999 µM",93.1%
same,"viability, T/C","second compound 0.316 µM, first compound 0.0316 µM",87.9%
same,"viability, T/C","second compound 0.316 µM, first compound 0.0999 µM",88.5%
same,"viability, T/C","second compound 0.316 µM, first compound 0.316 µM",70.5%
same,"viability, T/C","second compound 1 µM, first compound 0.000999 µM",103%
same,"viability, T/C","second compound 1 µM, first compound 0.00316 µM",86.6%
same,"viability, T/C","second compound 1 µM, first compound 0.00999 µM",85.5%
same,"viability, T/C","second compound 1 µM, first compound 0.0316 µM",85.5%
same,"viability, T/C","second compound 1 µM, first compound 0.0999 µM",82.5%
same,"viability, T/C","second compound 1 µM, first compound 0.316 µM",69.5%
same,"viability, T/C","second compound 3.16 µM, first compound 0.000999 µM",73.5%
same,"viability, T/C","second compound 3.16 µM, first compound 0.00316 µM",72.7%
same,"viability, T/C","second compound 3.16 µM, first compound 0.00999 µM",81.6%
same,"viability, T/C","second compound 3.16 µM, first compound 0.0316 µM",89.9%
same,"viability, T/C","second compound 3.16 µM, first compound 0.0999 µM",83.1%
same,"viability, T/C","second compound 3.16 µM, first compound 0.316 µM",70.9%
same,"viability, T/C","second compound 10 µM, first compound 0.000999 µM",76.2%
same,"viability, T/C","second compound 10 µM, first compound 0.00316 µM",74.9%
same,"viability, T/C","second compound 10 µM, first compound 0.00999 µM",80.6%
same,"viability, T/C","second compound 10 µM, first compound 0.0316 µM",77.6%
same,"viability, T/C","second compound 10 µM, first compound 0.0999 µM",82.2%
same,"viability, T/C","second compound 10 µM, first compound 0.316 µM",66.1%
